The assay concerns the target T1, hSTING (Homo sapiens, UniProt Q86WV6, G230A/H232R/R293Q/R71H).
T1 construct: host or cells: THP1-Dual KO-IFNAR2 cells
Nature of the assay: STING reporter assay (luciferase) in THP1-Dual KO-IFNAR2 cells stimulated with 2'3'cGAMP. The class given is cell-based. Particulars: 2'3'cGAMP 15 μM, 24 h, luciferase reporter activity. The method in brief:
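THP1-Dual KO-IFNAR2 cells (2×10E6 cells/mL) exposed to compounds at 0.0017-100 μM final, then stimulated with 2′3′cGAMP (15 μM final) delivered by Lipofectamine 2000 transfection. After 24 h at 37° C, secreted luciferase in supernatant read by QUANTI-Luc luminescence; EC50 calculated.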
In general terms: A reporter such as luciferase makes a cellular process visible.

SMILES strings stand for the structures.

T1 sequence (Q86WV6 whole entry R71H/G230A/H232R/R293Q): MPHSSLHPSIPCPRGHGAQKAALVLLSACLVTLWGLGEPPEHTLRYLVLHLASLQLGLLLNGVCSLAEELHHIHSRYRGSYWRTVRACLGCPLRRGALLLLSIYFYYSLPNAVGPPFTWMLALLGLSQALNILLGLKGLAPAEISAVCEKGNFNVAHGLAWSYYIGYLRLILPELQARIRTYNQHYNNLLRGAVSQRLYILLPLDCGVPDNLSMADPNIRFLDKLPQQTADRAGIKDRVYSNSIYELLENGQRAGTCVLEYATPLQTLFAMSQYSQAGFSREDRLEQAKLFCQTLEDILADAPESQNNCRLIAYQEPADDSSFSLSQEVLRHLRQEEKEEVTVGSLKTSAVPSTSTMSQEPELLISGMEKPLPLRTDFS

Broadly, the EC50 is the concentration at which the effect is half-maximal. The molecule `COC1(C)CN(c2ncc(NC(=O)Nc3c[nH]c4cc(F)c(F)cc34)cc2Cl)C1` [Compound 187, 1-(5-chloro-6-(3-methoxy-3-methylazetidin-1-yl)pyridin-3-yl)-3-(5,6-difluoro-1H-indol-3-yl)urea] showed an EC50 of 200 to 1000 nM. `O=C(Nc1cn(C2CCC(F)(F)CC2)cn1)Nc1c[nH]c2ccc(Cl)cc12` [Compound 212, 3-(5-chloro-1H-indol-3-yl)-1-[1-(4,4-difluorocyclohexyl)imidazol-4-yl]urea]: the EC50 was in the range of 1000 to 5000 nM.

`O=C(Nc1ccc(C2CCC(F)(F)CC2)nc1)Nc1c[nH]c2ccc(Br)cc12` [Compound 203, 1-(5-bromo-1H-indol-3-yl)-3-(6-(4,4-difluorocyclohexyl)pyridin-3-yl)urea] registered an EC50 of 40 to 200 nM.

Molecule `O=C(Nc1cnn(C2CC3(C2)CC(F)(F)C3)c1)Nc1c[nH]c2ccc(Cl)cc12` [Compound 234, 1-(5-chloro-1H-indol-3-yl)-3-(1-(6,6-difluorospiro[3.3]heptan-2-yl)-1H-pyrazo1-4-yl)urea] displayed a half-maximal effective concentration (EC50) of 40 to 200 nM. On to `O=C(Nc1cnc(C2CCN(CC(F)(F)F)C2)c(Cl)c1)Nc1c[nH]c2ccc(Cl)cc12` (centres unmarked) [Compound 238, 1-(5-chloro-1H-indol-3-yl)-3-(5-chloro-6-(1-(2,2,2-trifluoroethyl)pyrrolidin-3-yl)pyridin-3-yl)urea], for which the EC50 lay within 40 to 200 nM. To `C[C@@H]1CN(c2ncc(NC(=O)Nc3c[nH]c4cc(F)c(F)cc34)cc2Cl)C[C@H](C)O1` [Compound 146, 1-(5-chloro-6-((2R,6S)-2,6-dimethylmorpholino)pyridin-3-yl)-3-(5,6-difluoro-1H-indol-3-yl)urea] belongs 40 to 200 nM; to `O=C(Nc1cnc(N2CCC(F)(F)CC2)c(F)c1)Nc1c[nH]c2ccc(F)cc12` [Compound 274, 1-(6-(4,4-difluoropiperidin-1-yl)-5-fluoropyridin-3-yl)-3-(5-fluoro-1H-indol-3-yl)urea], 40 to 200 nM. To `Cc1ccc2[nH]cc(NC(=O)Nc3cnc(N4CCC(F)(F)CC4)c(C)c3)c2c1` [Compound 197, 1-(6-(4,4-difluoropiperidin-1-yl)-5-methylpyridin-3-yl)-3-(5-methyl-1H-indol-3-yl)urea] belongs 40 to 200 nM; to `O=C(Nc1ccn(C2CCC(F)(F)CC2)n1)Nc1c[nH]c2ccc(F)cc12` [Compound 211, 1-(1-(4,4-difluorocyclohexyl)-1H-pyrazol-3-yl)-3-(5-fluoro-1H-indol-3-yl)urea], 1000 to 5000 nM. Molecule `COCCO[C@@H]1CCN(c2ncc(NC(=O)Nc3c[nH]c4cc(F)c(F)cc34)cc2Cl)C1` [Compound 185, (R)-1-(5-chloro-6-(3-(2-methoxyethoxy)pyrrolidin-1-yl)pyridin-3-yl)-3-(5,6-difluoro-1H-indol-3-yl)urea] showed an EC50 of 200 to 1000 nM. To `O=C(Nc1ccnc(C2CCC(F)(F)CC2)c1)Nc1c[nH]c2cc(F)c(F)cc12` [Compound 220, 1-(5,6-difluoro-1H-indol-3-yl)-3-(2-(4,4-difluorocyclohexyl)pyridin-4-yl)urea] belongs 200 to 1000 nM; to `O=C(Nc1cnc(N2CCC(F)(F)C2)c(Cl)c1)Nc1c[nH]c2ccc(Cl)cc12` [Compound 243, 1-(5-chloro-1H-indol-3-yl)-3-(5-chloro-6-(3,3-difluoropyrrolidin-1-yl)pyridin-3-yl)urea], 40 to 200 nM; to `O=C(Nc1cnc(N2CCN(CCC(F)(F)F)CC2)c(Cl)c1)Nc1c[nH]c2ccc(F)cc12` [Compound 245, 1-(5-chloro-6-(4-(3,3,3-trifluoropropyl)piperazin-1-yl)pyridin-3-yl)-3-(5-fluoro-1H-indol-3-yl)urea], 40 to 200 nM. On to `C[C@@H]1CN(c2ncc(NC(=O)Nc3c[nH]c4cc(F)c(F)cc34)cc2Cl)CCO1` [Compound 158, (R)-1-(5-chloro-6-(2-methylmorpholino)pyridin-3-yl)-3-(5,6-difluoro-1H-indol-3-yl)urea], for which the EC50 lay within 200 to 1000 nM.

In turn, `Cc1cc(NC(=O)Nc2c[nH]c3cc(F)c(F)cc23)cnc1N1CC2(C1)CC(F)(F)C2` [Compound 167, 1-(5,6-difluoro-1H-indol-3-yl)-3-(6-(6,6-difluoro-2-azaspiro[3.3]heptan-2-yl)-5-methylpyridin-3-yl)urea] displayed an EC50 of 200 to 1000 nM. As to `O=C(Nc1ccc(C2CCC(F)(F)CC2)nc1)Nc1c[nH]c2ccccc12` [Compound 190, 1-(6-(4,4-difluorocyclohexyl)pyridin-3-yl)-3-(1H-indol-3-yl)urea], the concentration giving a half-maximal response (EC50) fell in the range of 200 to 1000 nM. Under `O=C(Nc1cnc(C2CCN(CC(F)(F)F)CC2)c(Cl)c1)Nc1c[nH]c2ccc(Cl)cc12` [Compound 297, 1-(5-chloro-1H-indol-3-yl)-3-(5-chloro-6-(1-(2,2,2-trifluoroethyl)piperidin-4-yl)pyridin-3-yl)urea] stands 40 to 200 nM.

Take `O=C(Nc1cnc(N2CCC3(CCCCO3)CC2)c(Cl)c1)Nc1c[nH]c2ccccc12` [Compound 281, 1-(5-chloro-6-(1-oxa-9-azaspiro[5.5]undecan-9-yl)pyridin-3-yl)-3-(1H-indol-3-yl)urea]: the EC50 fell in the range of 40 to 200 nM.

For `O=C(Nc1cnc(N2CCN(CCC(F)(F)F)CC2)c(F)c1)Nc1c[nH]c2ccc(F)cc12` [Compound 267, 1-(5-fluoro-1H-indol-3-yl)-3-(5-fluoro-6-(4-(3,3,3-trifluoropropyl)piperazin-1-yl)pyridin-3-yl)urea], the EC50 was 40 to 200 nM.

`CS(=O)(=O)c1ccc2[nH]cc(NC(=O)Nc3cnc(N4CCC(F)(F)CC4)c(Cl)c3)c2c1` [Compound 171, 1-(5-chloro-6-(4,4-difluoropiperidin-1-yl)pyridin-3-yl)-3-(5-(methylsulfonyl)-1H-indol-3-yl)urea] displayed an EC50 of 5000 to 100000 nM. To `CCc1cc(NC(=O)Nc2c[nH]c3ccc(Cl)cc23)cnc1N1CCC(F)(F)CC1` [Compound 131, 1-(5-chloro-1H-indol-3-yl)-3-(6-(4,4-difluoropiperidin-1-yl)-5-ethylpyridin-3-yl)urea] belongs 40 to 200 nM; to `O=C(Nc1cnc(N2CCC(F)(F)CC2)nc1)Nc1c[nH]c2ccc(Cl)cc12` [Compound 180, 1-(5-chloro-1H-indol-3-yl)-3-(2-(4,4-difluoropiperidin-1-yl)pyrimidin-5-yl)urea], 40 to 200 nM; to `Cc1cc(NC(=O)Nc2c[nH]c3ccc(Cl)cc23)cnc1N1CC2(C1)CC(F)(F)C2` [Compound 129, 1-(5-chloro-1H-indol-3-yl)-3-(6-(6,6-difluoro-2-azaspiro[3.3]heptan-2-yl)-5-methylpyridin-3-yl)urea], 40 to 200 nM. The molecule `COCCN1CCN(c2ncc(NC(=O)Nc3c[nH]c4cc(F)c(F)cc34)cc2Cl)CC1` [Compound 134, 1-(5-chloro-6-(4-(2-methoxyethyl)piperazin-1-yl)pyridin-3-yl)-3-(5,6-difluoro-1H-indol-3-yl)urea] displayed a concentration giving a half-maximal response (EC50) of 1000 to 5000 nM. `O=C(Nc1cnc(N2CC3(CN(CC(F)(F)F)C3)C2)c(F)c1)Nc1c[nH]c2ccc(Cl)cc12` [Compound 249, 1-(5-chloro-1H-indol-3-yl)-3-(5-fluoro-6-(6-(2,2,2-trifluoroethyl)-2,6-diazaspiro[3.3]heptan-2-yl)pyridin-3-yl)urea]: the EC50 fell in the range of 200 to 1000 nM.

`O=C(Nc1cnc(N2CCC(F)(F)CC2)cn1)Nc1c[nH]c2cc(F)c(F)cc12` [Compound 194, 1-(5,6-difluoro-1H-indol-3-yl)-3-(5-(4,4-difluoropiperidin-1-yl)pyrazin-2-yl)urea]: the EC50 fell in the range of 200 to 1000 nM.

The values above are taken from patent US20230127839A1, “COMPOUNDS AND COMPOSITIONS FOR TREATING CONDITIONS ASSOCIATED WITH STING ACTIVITY” (IFM Due, Inc., priority 2019, published 2023).
